Test results: article PMC6576746, “Rational discovery of dual-indication multi-target PDE/Kinase inhibitor for precision anti-cancer therapy using structural systems pharmacology” (PLoS Computational Biology, 2019)

Experiments:
Assay in all cases: biochemical
Parameters in all cases: DiscoverX KinomeScan competition binding assay across human kinases; per cent of control at 10 and 100 uM
[1] = molecular target: FRK (Homo sapiens, UniProt P42685); details: competition binding, % of control; read-out: Percent Control (100 uM Levosimendan)
Method in brief: (§1)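 KinomeScan competition binding was run across a human kinase panel at 10 μM and 100 μM levosimendan. Results are %control = (test − positive control)/(negative control − positive control) × 100.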

[2] = molecular target: NEK9 (Homo sapiens, UniProt Q8TD19); details: competition binding, % of control; read-out: Percent Control (100 uM Levosimendan)
Method in brief: as §1

[3] = molecular target: WNK2 (Homo sapiens, UniProt Q9Y3S1); details: competition binding, % of control; read-out: Percent Control (100 uM Levosimendan)
Method in brief: as §1

[4] = molecular target: T1, BRK (Homo sapiens, UniProt Q13882); details: competition binding, % of control; read-out: Percent Control (100 uM Levosimendan)
T1 construct: gene PTK6
Method in brief: as §1

[5] = molecular target: T2, DRAK1 (Homo sapiens, UniProt Q9UEE5); details: competition binding, % of control
T2 construct: gene STK17A
Method in brief: as §1

[6] = molecular target: TNNI3K (Homo sapiens, UniProt Q59H18); details: competition binding, % of control; read-out: Percent Control (100 uM Levosimendan)
Method in brief: as §1

[7] = molecular target: HIPK4 (Homo sapiens, UniProt Q8NE63); details: competition binding, % of control; read-out: Percent Control (100 uM Levosimendan)
Method in brief: as §1

[8] = molecular target: T3, MRCKB (Homo sapiens, UniProt Q9Y5S2); details: competition binding, % of control; read-out: Percent Control (100 uM Levosimendan)
T3 construct: gene CDC42BPB
Method in brief: as §1

[9] = molecular target: CLK1 (Homo sapiens, UniProt P49759); details: competition binding, % of control; read-out: Percent Control (100 uM Levosimendan)
Method in brief: as §1

[10] = molecular target: MAPKAPK5 (Homo sapiens, UniProt Q8IW41); details: competition binding, % of control; read-out: Percent Control (100 uM Levosimendan)
Method in brief: as §1

[11] = molecular target: PHKG2 (Homo sapiens, UniProt P15735); details: competition binding, % of control
Method in brief: as §1

[12] = molecular target: T4, LOK (Homo sapiens, UniProt O94804); details: competition binding, % of control; read-out: Percent Control (100 uM Levosimendan)
T4 construct: gene STK10
Method in brief: as §1

[13] = molecular target: TXK (Homo sapiens, UniProt P42681); details: competition binding, % of control; read-out: Percent Control (100 uM Levosimendan)
Method in brief: as §1

[14] = molecular target: PRKG2 (Homo sapiens, UniProt Q13237); details: competition binding, % of control; read-out: Percent Control (100 uM Levosimendan)
Method in brief: as §1

[15] = molecular target: CSNK1G1 (Homo sapiens, UniProt Q9HCP0); details: competition binding, % of control; read-out: Percent Control (100 uM Levosimendan)
Method in brief: as §1

[16] = molecular target: MUSK (Homo sapiens, UniProt O15146); details: competition binding, % of control; read-out: Percent Control (100 uM Levosimendan)
Method in brief: as §1

[17] = molecular target: NLK (Homo sapiens, UniProt Q9UBE8); details: competition binding, % of control; read-out: Percent Control (100 uM Levosimendan)
Method in brief: as §1

[18] = molecular target: DAPK3 (Homo sapiens, UniProt O43293); details: competition binding, % of control; read-out: Percent Control (100 uM Levosimendan)
Method in brief: as §1

[19] = molecular target: BRAF (Homo sapiens, UniProt P15056); details: competition binding, % of control; read-out: Percent Control (100 uM Levosimendan)
Method in brief: as §1

[20] = read-out: Percent Control (10 uM Levosimendan)
[21] = read-out: Percent Control (100 uM Levosimendan)

T2 sequence (Q9UEE5 whole entry): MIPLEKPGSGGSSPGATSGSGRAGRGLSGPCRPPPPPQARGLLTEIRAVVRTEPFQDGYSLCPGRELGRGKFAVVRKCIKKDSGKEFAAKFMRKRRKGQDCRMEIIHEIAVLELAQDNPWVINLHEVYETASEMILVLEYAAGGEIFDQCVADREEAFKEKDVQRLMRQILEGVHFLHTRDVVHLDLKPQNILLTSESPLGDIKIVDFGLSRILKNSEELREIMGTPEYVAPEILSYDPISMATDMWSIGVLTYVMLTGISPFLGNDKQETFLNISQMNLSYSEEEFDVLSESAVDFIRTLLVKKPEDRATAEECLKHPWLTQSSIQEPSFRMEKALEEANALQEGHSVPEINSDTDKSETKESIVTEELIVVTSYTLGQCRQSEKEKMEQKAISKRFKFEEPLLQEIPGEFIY
Chain of PHKG2 (P15735 whole entry): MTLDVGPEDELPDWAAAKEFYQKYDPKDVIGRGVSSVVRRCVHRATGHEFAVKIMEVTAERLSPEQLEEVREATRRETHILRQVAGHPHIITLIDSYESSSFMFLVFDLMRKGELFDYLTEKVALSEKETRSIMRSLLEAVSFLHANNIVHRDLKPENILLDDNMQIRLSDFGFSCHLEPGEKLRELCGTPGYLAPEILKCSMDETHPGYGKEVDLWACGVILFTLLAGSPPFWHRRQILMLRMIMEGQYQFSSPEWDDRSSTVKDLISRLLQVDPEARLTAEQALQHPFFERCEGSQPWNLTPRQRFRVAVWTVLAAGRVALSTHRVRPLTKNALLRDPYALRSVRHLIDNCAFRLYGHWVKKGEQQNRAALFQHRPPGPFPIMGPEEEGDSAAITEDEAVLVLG
T4 sequence (O94804 whole entry): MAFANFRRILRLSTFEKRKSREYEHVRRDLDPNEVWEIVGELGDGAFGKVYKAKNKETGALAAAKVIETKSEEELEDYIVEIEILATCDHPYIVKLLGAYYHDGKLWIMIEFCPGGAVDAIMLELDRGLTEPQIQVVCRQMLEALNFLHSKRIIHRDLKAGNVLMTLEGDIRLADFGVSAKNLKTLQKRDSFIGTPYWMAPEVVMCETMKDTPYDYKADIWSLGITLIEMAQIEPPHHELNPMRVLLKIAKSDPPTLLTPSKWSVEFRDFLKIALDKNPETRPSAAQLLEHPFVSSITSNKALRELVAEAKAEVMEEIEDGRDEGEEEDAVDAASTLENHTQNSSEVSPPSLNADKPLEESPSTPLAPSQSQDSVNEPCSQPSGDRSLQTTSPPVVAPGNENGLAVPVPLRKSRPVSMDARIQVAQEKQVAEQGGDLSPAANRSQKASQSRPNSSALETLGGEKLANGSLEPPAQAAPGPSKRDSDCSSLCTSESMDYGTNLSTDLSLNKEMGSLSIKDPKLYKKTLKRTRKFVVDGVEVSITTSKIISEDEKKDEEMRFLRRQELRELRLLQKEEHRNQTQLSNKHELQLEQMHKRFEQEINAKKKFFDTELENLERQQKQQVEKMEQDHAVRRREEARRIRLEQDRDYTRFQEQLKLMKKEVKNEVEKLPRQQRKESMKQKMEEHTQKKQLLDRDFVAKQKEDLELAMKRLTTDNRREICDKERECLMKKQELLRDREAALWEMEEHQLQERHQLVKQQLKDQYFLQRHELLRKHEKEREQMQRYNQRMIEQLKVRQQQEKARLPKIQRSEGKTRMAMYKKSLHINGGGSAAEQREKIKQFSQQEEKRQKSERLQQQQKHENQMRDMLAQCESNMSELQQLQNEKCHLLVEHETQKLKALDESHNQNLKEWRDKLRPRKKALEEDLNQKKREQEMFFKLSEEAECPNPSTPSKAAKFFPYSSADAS
Chain of HIPK4 (Q8NE63 whole entry): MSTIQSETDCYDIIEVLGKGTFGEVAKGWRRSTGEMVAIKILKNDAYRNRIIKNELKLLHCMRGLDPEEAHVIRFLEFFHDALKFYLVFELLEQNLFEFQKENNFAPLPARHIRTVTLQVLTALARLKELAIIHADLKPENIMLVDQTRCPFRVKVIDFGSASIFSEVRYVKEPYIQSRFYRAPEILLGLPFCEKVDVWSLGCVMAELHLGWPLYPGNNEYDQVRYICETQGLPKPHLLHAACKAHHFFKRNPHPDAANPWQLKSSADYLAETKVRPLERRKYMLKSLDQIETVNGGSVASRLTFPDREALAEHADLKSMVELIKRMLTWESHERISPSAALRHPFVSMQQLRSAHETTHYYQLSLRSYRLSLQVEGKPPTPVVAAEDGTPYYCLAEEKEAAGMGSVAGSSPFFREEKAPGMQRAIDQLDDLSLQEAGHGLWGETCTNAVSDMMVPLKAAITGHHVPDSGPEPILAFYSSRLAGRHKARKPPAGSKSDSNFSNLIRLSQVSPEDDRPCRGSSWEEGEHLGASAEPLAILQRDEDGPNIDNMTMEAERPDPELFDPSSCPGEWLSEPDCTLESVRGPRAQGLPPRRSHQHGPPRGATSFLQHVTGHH
Chain of NEK9 (Q8TD19 whole entry): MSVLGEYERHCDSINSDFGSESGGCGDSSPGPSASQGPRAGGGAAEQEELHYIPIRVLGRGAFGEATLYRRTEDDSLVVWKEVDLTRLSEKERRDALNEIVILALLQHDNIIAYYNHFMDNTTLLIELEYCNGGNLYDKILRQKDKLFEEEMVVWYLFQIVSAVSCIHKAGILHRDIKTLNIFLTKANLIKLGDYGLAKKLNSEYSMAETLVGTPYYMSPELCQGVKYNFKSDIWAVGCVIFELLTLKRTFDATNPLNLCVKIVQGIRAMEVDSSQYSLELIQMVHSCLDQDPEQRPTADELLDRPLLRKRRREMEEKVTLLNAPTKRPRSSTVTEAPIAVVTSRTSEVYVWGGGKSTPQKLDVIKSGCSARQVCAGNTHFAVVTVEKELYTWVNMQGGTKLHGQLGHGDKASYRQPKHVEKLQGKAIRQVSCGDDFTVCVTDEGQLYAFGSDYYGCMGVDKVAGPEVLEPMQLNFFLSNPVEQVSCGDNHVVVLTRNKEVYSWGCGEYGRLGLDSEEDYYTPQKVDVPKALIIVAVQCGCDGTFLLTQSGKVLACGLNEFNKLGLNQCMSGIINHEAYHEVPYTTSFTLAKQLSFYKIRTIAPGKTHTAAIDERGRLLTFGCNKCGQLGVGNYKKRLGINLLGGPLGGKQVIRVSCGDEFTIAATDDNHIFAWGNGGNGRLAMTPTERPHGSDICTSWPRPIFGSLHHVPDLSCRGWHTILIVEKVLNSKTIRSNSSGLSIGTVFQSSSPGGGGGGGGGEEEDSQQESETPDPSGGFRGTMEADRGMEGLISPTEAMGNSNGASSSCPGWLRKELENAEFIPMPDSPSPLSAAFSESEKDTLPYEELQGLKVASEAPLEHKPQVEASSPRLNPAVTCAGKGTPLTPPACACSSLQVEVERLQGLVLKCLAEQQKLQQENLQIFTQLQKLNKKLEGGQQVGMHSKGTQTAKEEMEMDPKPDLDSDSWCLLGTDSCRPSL
Chain of MAPKAPK5 (Q8IW41 whole entry): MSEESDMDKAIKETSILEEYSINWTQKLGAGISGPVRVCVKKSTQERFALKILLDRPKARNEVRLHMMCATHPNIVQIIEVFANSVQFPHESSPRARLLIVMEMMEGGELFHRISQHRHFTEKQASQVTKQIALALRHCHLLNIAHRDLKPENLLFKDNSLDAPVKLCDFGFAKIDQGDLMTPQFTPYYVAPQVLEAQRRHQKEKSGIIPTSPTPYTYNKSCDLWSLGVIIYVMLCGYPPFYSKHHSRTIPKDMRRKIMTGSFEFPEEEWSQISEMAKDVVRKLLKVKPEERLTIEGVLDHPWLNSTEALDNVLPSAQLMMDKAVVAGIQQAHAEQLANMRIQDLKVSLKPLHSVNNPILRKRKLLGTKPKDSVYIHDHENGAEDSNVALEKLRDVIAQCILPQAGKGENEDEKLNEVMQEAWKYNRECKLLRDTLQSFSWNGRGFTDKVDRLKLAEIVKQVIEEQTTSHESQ
T1 sequence (Q13882 whole entry): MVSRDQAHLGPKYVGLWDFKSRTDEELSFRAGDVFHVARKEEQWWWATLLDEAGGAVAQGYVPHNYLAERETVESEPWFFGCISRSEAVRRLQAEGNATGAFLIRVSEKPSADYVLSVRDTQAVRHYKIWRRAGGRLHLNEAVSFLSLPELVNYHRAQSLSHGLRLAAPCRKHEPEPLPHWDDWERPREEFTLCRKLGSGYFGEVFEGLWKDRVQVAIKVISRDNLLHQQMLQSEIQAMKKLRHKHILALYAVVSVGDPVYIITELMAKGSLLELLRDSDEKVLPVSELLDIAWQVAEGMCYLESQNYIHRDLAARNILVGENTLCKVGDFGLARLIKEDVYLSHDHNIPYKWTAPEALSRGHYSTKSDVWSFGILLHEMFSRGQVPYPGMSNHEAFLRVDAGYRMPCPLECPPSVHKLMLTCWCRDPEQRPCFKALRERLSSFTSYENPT
Chain of DAPK3 (O43293 whole entry): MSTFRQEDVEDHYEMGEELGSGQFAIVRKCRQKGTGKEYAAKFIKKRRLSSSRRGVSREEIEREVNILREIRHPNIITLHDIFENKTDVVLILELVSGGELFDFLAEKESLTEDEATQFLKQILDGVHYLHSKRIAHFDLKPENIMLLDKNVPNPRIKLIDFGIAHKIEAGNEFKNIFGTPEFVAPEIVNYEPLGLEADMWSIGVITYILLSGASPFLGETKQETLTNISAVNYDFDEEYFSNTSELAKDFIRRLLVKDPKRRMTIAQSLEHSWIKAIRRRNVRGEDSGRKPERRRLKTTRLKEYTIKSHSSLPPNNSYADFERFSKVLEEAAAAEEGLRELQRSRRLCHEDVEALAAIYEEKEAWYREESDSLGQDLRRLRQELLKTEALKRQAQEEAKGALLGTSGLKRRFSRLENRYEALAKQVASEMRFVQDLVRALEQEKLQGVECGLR

C[C@@H]1CC(=O)NN=C1c1ccc(NN=C(C#N)C#N)cc1 [levosimendan]
remaining binding at 100 µM [1]: 100%
remaining binding at 100 µM [2]: 56%
remaining binding at 100 µM [3]: 98%
remaining binding at 100 µM [4]: 85%
remaining binding at 10 µM [5, 20]: 87%
remaining binding at 100 µM [5, 21]: 22%
remaining binding at 100 µM [6]: 95%
remaining binding at 100 µM [7]: 84%
remaining binding at 100 µM [8]: 74%
remaining binding at 100 µM [9]: 89%
remaining binding at 100 µM [10]: 100%
remaining binding at 10 µM [11, 20]: 55%
remaining binding at 100 µM [11, 21]: 47%
remaining binding at 100 µM [12]: 70%
remaining binding at 100 µM [13]: 60%
remaining binding at 100 µM [14]: 98%
remaining binding at 100 µM [15]: 78%
remaining binding at 100 µM [16]: 100%
remaining binding at 100 µM [17]: 100%
remaining binding at 100 µM [18]: 60%
remaining binding at 100 µM [19]: 81%
